Experiment [1] concerns mutant (Nal B, H744) of P. aeruginosa. Put plainly: microbe, parasite or virus in culture. The format is cell-based. Particulars: for (B) MIC of Cipro when combined with peptide: ciprofloxacin with peptide at concentration (A); for MIC A MIC of Peptides: peptide alone, P. aeruginosa mutant Nal B, H744 (Table 5); for (A) Peptide doses together with Cipro: peptide concentration in combination with ciprofloxacin. The method, then: (§1) The biological activity of the peptides can be determined by standard methods known to those of skill in the art, such as Aminimal inhibitory concentration (MIC)≅ assay described in the present examples, whereby the lowest concentration at which no change in OD is observed for a given period of time is recorded as MIC. Alternatively, Afractional inhibitory concentration (FIC)≅ is also useful for determination of synergy between the peptides of the invention, or the peptides in combination with known antibiotics. FICs are performed by checkerboard titrations of peptides in one dimension of a microtiter plate, and of antibiotics in the other dimension, for example. The FIC is calculated by looking at the impact of one antibiotic on the MIC of the other and vice versa. […] Preferably, an FIC of less than 0.5 is obtained for synergism. As used herein, FIC can be determined as follows: [formula]
(§2) To test whether the peptides of the invention synergize with various antibiotics, the following method was employed. Fractional Inhibitory Concentration (FIC) was used to determine synergy of peptides combined with antibiotics (e.g., carbenicillin/ciprofloxacin) against Pseudomonas aeruginosa. The following methodology was followed:
(§3) (1) Determination of MIC of cationic peptides (MIC A):
(§4) 100 μl Mueller Hinton broth (MHB) was added per well
(§5) 12.5 μl of 10× test concentration peptide was added per well to get final peptide concentration of e.g., 128, 64, 32, . . . 0.025 μg/ml from row 1 to 11;
(§6) 10 μl of 10^−4 dilution of overnight bacterial culture was added per well.
(§7) (2) Determination of MIC of Carbenicillin/Ciprofloxacin (MIC B):
(§8) 100 μl MHB was added per well;
(§9) 100 μl of 2× test concentration of antibiotic was added in the first well of the row, and doubling dilutions performed across the plate from column 1 to 11;
(§10) (3) Determination of MIC of antibiotics (B) when combined with peptides at concentration A:
(§11) 100 μl Carbenicillin (512 μg/ml) or Ciprofloxacin (8 μg/ml) was added in each well of column 1; doubling dilutions were performed across the plate;
(§12) 100 μl of the peptide was added in all wells of row 1, mixed, and 100 μl withdrawn and added to row 2, etc., creating a checkerboard titration.
(§13) 10 μl of 10^−4 dilution of overnight culture was added per well;
(§14) plates were incubated at 37EC for 18-24 hours. Combination MIC values A and B were taken as the lowest concentration of drug that reduced bacterial growth by more than 50% in any given column.
(§15) (4) FIC index=FICA+FICB=(A)/MIC A+(B)/MIC B. An FIC index of approximately 0.5 or less indicates synergy; 1.0 reflects additivity; and >1.0 indicates antagonism.

In experiment [2] the test system is β-lactamase derepressed mutant (H547) of P. aeruginosa. Put plainly: microbe, parasite or virus in culture. In kind it is cell-based. Particulars: P. aeruginosa H547; for (B) MIC of Carb when combined with peptide: Carbenicillin with peptide at concentration (A); for MIC A MIC of Peptides: peptide alone; for (A) Peptide doses together with Carb: peptide concentration in combination with Carbenicillin. The method, then: as §1, §2, §3, §4, §5, §6, §7, §8, §9, §10, §11, §12, §13, §14, §15

A further experiment has as its system Salmonella typhi. Put plainly: Synergy study (checkerboard titration) with hen white lysozyme. The format is cell-based. Conditions: for Lowest [CP] showing synergy: cationic peptide concentration, combined with lysozyme; for Lowest [Lyso] showing synergy: lysozyme concentration, combined with the peptide. The method, then:
as §1

The subject of the next experiment is P. aeruginosa (H103). The description is as above. The format is cell-based. Particulars: for Lowest [CP] showing synergy: cationic peptide concentration, combined with lysozyme; for Lowest [Lyso] showing synergy: lysozyme concentration, combined with the peptide. The method, then:
as §1

In experiment [3] the test system is E. coli. Described as above. In kind it is cell-based. Particulars: for Lowest [CP] showing synergy: cationic peptide concentration, combined with lysozyme; for Lowest [Lyso] showing synergy: lysozyme concentration, combined with the peptide. The method, then: as §1
Another experiment deals with P. aeruginosa. Put plainly: MIC, broth microdilution assay in polypropylene microtiter trays. In kind it is cell-based. Particulars: average of three separate experiments. The protocol: as §1
(§16) A method which employed polypropylene microtiter trays in a broth microdilution assay was developed.

For another experiment, the system named is S. aureus. Described as above. The format is cell-based. Particulars: average of three separate experiments. The protocol:
as §1, §16

A further experiment relates to S. aureus K147. The experiment is described as above. In kind it is cell-based. Conditions: average of three separate experiments. The protocol: as §1, §16
Another experiment has as its system S. epidermis. The experiment is described as above. In kind it is cell-based. Conditions: average of three separate experiments. The protocol:
as §1, §16

Experiment [4] concerns E. coli. The description is as above. The format is cell-based. Conditions: average of three separate experiments. The protocol:
as §1, §16

A short description of experiment [5]: Lethal endotoxemia in galactosamine-sensitized mice. The format is in vivo, CD-1 mice. Particulars: peptide 200 μg intraperitoneal within 10 min of 10 μg LPS; 24 hours post injection; 5 mice per group; no peptide 100. The protocol: To confirm this in vivo, endotoxic shock was induced by intraperitoneal injection of 10 μg of E.coli 0111:B4 LPS in phosphate-buffered saline (PBS; pH 7.2) into galactosamine-sensitized 8- to 10- week old female CD-1 mice (5 per group). In experiments involving peptides, 200 μg in 100 μl of sterile water was injected at separate intraperitoneal sites within 10 min of LPS injection. Survival was monitored at 24 hours post injection.

The results in this text go back to US6818407B2, “Anti-endotoxic antimicrobial cationic peptides and methods of use therfor” (priority 1998, dated 2004).

As for `CC[C@H](C)[C@H](NC(=O)CNC(=O)[C@@H](NC(=O)[C@H](CCCCN)NC(=O)[C@H](CCCCN)NC(=O)[C@H](Cc1ccccc1)NC(=O)[C@H](CC(C)C)NC(=O)[C@@H](N)CCCCN)[C@@H](C)CC)C(=O)NCC(=O)N[C@@H](C)C(=O)N[C@H](C(=O)N[C@@H](CC(C)C)C(=O)N[C@@H](CCCCN)C(=O)N[C@H](C(=O)N[C@@H](CC(C)C)C(=O)N[C@@H](CCCCN)C(=O)N[C@H](C(=O)N[C@@H](CC(C)C)C(=O)N[C@H](C(=O)N[C@H](C(=O)NCC(=O)N[C@@H](CC(C)C)C(=O)N1CCC[C@H]1C(=O)N[C@@H](C)C(=O)N[C@@H](CC(C)C)C(=O)N[C@@H](CCCCN)C(=O)N[C@@H](CC(C)C)C(=O)N[C@H](C(=O)N[C@@H](CC(C)C)C(=O)N[C@@H](CCCCN)C(=O)O)[C@@H](C)O)[C@@H](C)O)[C@@H](C)O)C(C)C)C(C)C)C(C)C` [CM5], in experiment [1] (Nal B, H744), the “(B) MIC of Cipro when combined with peptide” value is “.125 µg/mL” and the “(A) Peptide doses together with Cipro” value stood at 1 µg/mL. Also, the FIC index result in [1] (peptide + ciprofloxacin, Nal B, H744) is “.75”. Further, the “MIC A MIC of Peptides” value in [1] stood at 4 µg/mL. Besides, in [2], the “(B) MIC of Carb when combined with peptide” value worked out at 16 µg/mL, the “MIC A MIC of Peptides” value is 32 µg/mL and the “(A) Peptide doses together with Carb” value stood at 4 µg/mL. Moreover, the FIC index in experiment [2] (peptide + Carbenicillin, about 0.5 or less synergy, 1.0 additivity, >1.0 antagonism) is listed as 0.38. Moreover, in the experiment with Salmonella typhi, the “FIC for combination of cationic peptide and lysozyme” value (from here on “FIC for combination”) is on record as 0.56; the “Lowest [CP] showing synergy” value stood at 10.4 µg/mL; the “Lowest [Lyso] showing synergy” value turned out to be 62.5 µg/mL. Besides, in the experiment with P. aeruginosa (H103), the “FIC for combination” value was 0.63; the “Lowest [CP] showing synergy” value was found to be 10.4 µg/mL; the “Lowest [Lyso] showing synergy” value amounted to 125 µg/mL. For the same molecule, in the experiment with E. coli [3], the “FIC for combination” value was determined as 0.27; the “Lowest [CP] showing synergy” value amounted to 1.3 µg/mL; the “Lowest [Lyso] showing synergy” value came out at 7.8 µg/mL. Also, the “MIC P. aeruginosa” value in the experiment on P. aeruginosa worked out at 16 µg/mL. Further, in the experiment with S. aureus, the “MIC S. aureus” value was above 64 µg/mL. In addition, the “MIC S. aureus K147” value with S. aureus K147 turned out to be 64 µg/mL. Besides, the “MIC S. epidermis” value with S. epidermis came to 11 µg/mL. In the experiment with E. coli [4], the “MIC E. coli” value was found to be 4 µg/mL. Moreover, the “Mortality (%)” value in [5] worked out at 80%.
Regarding H-KWKSFIKKLTSAAKKVVTTAKPLALIS-OH [CM1], in experiment [1] (Nal B, H744), the “(B) MIC of Cipro when combined with peptide” value was “.25 µg/mL” and the “(A) Peptide doses together with Cipro” value stood at 1 µg/mL. In addition, the “MIC A MIC of Peptides” value in experiment [1] was 2 µg/mL. Also, in experiment [2], the “(B) MIC of Carb when combined with peptide” value is 64 µg/mL, the “MIC A MIC of Peptides” value turned out to be 16 µg/mL and the “(A) Peptide doses together with Carb” value came to 2 µg/mL. In addition, in the experiment with Salmonella typhi, the “FIC for combination” value was 0.53; the “Lowest [CP] showing synergy” value turned out to be 0.531 µg/mL; the “Lowest [Lyso] showing synergy” value is 31.3 µg/mL. Moreover, in the experiment with P. aeruginosa (H103), the “FIC for combination” value turned out to be 0.28; the “Lowest [CP] showing synergy” value amounted to 0.65 µg/mL; the “Lowest [Lyso] showing synergy” value amounted to 7.8 µg/mL. Also, in the experiment with E. coli [3], the “FIC for combination” value amounted to 0.19; the “Lowest [CP] showing synergy” value amounted to 0.041 µg/mL; the “Lowest [Lyso] showing synergy” value was determined as 7.8 µg/mL. Further, in the experiment on P. aeruginosa, the “MIC P. aeruginosa” value came to 5 µg/mL. Moreover, in the experiment on S. aureus, the “MIC S. aureus” value worked out at 64 µg/mL. The “MIC S. aureus K147” value in the experiment on S. aureus K147 was determined as 32 µg/mL. For the same molecule, in the experiment on S. epidermis, the “MIC S. epidermis” value came to 21 µg/mL. Also, the “MIC E. coli” value in the experiment with E. coli [4] came out at 1 µg/mL. Further, in [5], the “Mortality (%)” value is given as 100%.
